According to patent publication US10150764B2, “Substituted benzene compounds” (Epizyme, Inc., priority 2013, dated 2018):
pIC50: −log10 of the molar value. Counter-ions that a name gives are not always drawn.

Assays:
[1] = target: wild-type EZH2 (PRC2 enzyme) (Homo sapiens (Human), UniProt Q15910); test: PRC2 enzyme assay on peptide substrate, wild-type EZH2 (H3K27me0 peptide, 3H-SAM Flashplate); format: biochemical; details: wild-type PRC2 4 nM, read-out: WT EZH2 IC50
Method: (§1) Human PRC2 enzymes were purified as 4-component enzyme complexes co-expressed in Spodoptera frugiperda (sf9) cells using a baculovirus expression system. […] The EED subunit contained an N-terminal FLAG tag that was used to purify the entire 4-component complex from sf9 cell lysates.
(§2) The assays were all performed in a buffer consisting of 20 mM bicine (pH=7.6), 0.5 mM DTT, 0.005% BSG and 0.002% Tween20, prepared on the day of use. […] DMSO (1 μL) was added to columns 11, 12, 23, 24, rows A-H for the maximum signal control, and SAH, a known product and inhibitor of PRC2 (1 μL) was added to columns 11, 12, 23, 24, rows I-P for the minimum signal control. A cocktail (40 μL) containing the wild-type PRC2 enzyme and H3K27me0 peptide or any of the Y641 mutant enzymes and H3K27me2 peptide was added by Multidrop Combi (Thermo). The compounds were allowed to incubate with PRC2 for 30 min at 25° C., then a cocktail (10 μL) containing a mixture of non-radioactive and ^3H-SAM was added to initiate the reaction (final volume=51 μL). […] The assays were stopped by the addition of non-radioactive SAM (10 μL) to a final concentration of 600 μM, which dilutes the ^3H-SAM to a level where its incorporation into the peptide substrate is no longer detectable. 50 of the reaction in the 384-well polypropylene plate was then transferred to a 384-well Flashplate and the biotinylated peptides were allowed to bind to the streptavidin surface for at least 1 h before being washed three times with 0.1% Tween20 in a Biotek ELx405 plate washer. The plates were then read in a PerkinElmer TopCount platereader to measure the quantity of ^3H-labeled peptide bound to the Flashplate surface, measured as disintegrations per minute (dpm) or alternatively, referred to as counts per minute (cpm).

[2] = target: EZH2 Y641F mutant (PRC2 enzyme) (Homo sapiens (Human), UniProt Q15910, Y641F); test: PRC2 enzyme assay on peptide substrate, EZH2 Y641F mutant (H3K27me2 peptide, 3H-SAM Flashplate); format: biochemical; details: Y641F mutant PRC2 4 nM
Sequence of EZH2 Y641F mutant (PRC2 enzyme) (Q15910 whole entry Y641F): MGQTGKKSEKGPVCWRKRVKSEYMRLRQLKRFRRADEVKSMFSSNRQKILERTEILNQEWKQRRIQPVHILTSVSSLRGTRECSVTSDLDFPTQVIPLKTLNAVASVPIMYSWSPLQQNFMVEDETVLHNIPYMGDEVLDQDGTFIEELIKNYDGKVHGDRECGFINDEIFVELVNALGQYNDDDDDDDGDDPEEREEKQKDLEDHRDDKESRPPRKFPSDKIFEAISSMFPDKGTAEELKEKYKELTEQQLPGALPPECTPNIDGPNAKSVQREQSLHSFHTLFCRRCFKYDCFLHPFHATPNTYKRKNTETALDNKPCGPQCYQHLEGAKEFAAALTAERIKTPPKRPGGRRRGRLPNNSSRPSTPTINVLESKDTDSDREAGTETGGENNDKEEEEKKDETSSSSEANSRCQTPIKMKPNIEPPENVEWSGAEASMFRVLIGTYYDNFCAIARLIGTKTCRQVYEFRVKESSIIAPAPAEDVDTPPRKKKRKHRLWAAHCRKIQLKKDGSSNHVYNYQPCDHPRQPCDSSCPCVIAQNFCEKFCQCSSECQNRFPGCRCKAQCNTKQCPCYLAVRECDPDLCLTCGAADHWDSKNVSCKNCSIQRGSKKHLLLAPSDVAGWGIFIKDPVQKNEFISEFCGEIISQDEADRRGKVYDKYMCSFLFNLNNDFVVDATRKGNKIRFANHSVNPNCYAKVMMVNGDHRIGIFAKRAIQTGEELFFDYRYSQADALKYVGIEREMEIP
Sequence of EZH2 Y641F mutant (PRC2 enzyme) (O75530 whole entry partner): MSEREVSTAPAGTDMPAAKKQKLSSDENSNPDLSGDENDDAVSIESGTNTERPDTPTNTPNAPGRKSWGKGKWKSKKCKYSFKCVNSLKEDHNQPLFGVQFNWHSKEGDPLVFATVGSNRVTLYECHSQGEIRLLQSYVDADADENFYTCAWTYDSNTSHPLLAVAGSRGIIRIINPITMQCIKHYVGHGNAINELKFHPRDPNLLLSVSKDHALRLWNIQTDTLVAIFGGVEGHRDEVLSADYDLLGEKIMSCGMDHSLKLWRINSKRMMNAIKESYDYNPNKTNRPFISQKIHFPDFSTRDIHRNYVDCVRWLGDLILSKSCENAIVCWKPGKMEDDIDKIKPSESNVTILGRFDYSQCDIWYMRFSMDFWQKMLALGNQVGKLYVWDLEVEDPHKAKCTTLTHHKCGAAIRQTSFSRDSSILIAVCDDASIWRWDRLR
Sequence of EZH2 Y641F mutant (PRC2 enzyme) (Q15022 whole entry partner): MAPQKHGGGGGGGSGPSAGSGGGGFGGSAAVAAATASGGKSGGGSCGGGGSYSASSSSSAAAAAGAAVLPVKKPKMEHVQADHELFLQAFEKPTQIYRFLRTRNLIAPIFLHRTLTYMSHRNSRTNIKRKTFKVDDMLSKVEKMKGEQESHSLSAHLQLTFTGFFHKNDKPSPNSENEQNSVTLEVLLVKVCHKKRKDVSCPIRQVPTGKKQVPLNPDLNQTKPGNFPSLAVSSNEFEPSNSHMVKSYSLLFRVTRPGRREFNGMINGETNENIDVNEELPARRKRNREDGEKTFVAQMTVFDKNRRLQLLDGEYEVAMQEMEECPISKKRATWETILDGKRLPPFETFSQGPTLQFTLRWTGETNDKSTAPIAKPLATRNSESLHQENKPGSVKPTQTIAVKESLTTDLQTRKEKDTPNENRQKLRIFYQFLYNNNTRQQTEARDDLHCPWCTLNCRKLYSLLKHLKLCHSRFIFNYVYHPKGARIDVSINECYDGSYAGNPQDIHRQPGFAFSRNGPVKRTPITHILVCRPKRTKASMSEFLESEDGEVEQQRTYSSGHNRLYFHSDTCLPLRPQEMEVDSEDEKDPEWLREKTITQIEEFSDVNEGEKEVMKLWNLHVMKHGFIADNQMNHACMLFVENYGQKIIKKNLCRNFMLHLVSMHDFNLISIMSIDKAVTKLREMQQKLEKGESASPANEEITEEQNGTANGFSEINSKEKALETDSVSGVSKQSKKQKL
Sequence of EZH2 Y641F mutant (PRC2 enzyme) (Q09028 whole entry partner): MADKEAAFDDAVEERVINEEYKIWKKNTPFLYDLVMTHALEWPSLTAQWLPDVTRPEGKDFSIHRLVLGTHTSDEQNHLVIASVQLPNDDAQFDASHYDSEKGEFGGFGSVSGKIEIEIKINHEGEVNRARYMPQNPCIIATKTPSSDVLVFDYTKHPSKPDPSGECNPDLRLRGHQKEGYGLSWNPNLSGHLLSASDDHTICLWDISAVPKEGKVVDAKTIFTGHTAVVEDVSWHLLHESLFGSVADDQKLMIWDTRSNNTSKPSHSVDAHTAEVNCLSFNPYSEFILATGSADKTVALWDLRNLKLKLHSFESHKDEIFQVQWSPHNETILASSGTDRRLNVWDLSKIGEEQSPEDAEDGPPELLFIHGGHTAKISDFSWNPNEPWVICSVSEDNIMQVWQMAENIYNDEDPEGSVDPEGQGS
Method: as §1, §2

Sequence of wild-type EZH2 (PRC2 enzyme) (Q15910 whole entry): as the sequence (Q15910 whole entry Y641F) above, with F641Y counted along it
Sequence of wild-type EZH2 (PRC2 enzyme) (O75530 whole entry partner): as the sequence (O75530 whole entry partner) above
Sequence of wild-type EZH2 (PRC2 enzyme) (Q15022 whole entry partner): as the sequence (Q15022 whole entry partner) above
Sequence of wild-type EZH2 (PRC2 enzyme) (Q09028 whole entry partner): as the sequence (Q09028 whole entry partner) above

SMILES | pIC50 [1] | pIC50 [2]
CCN(c1cc(Cl)cc(C(=O)NCc2c(C)n(C)[nH]c2=O)c1C)[C@H]1CC[C@H](N(C)Cc2cccc(OCCOC)c2)CC1 [Compound 69, 5-chloro-N-((1,5-dimethyl-3-oxo-2,3-dihydro-1H-pyrazol-4-yl)methyl)-3-(ethyl((trans)-4-((3-(2-methoxyethoxy)benzyl)(methyl)amino)cyclohexyl)amino)-2-methylbenzamide] | 6.87 | 7.51
CCN(c1cc(Cl)cc(C(=O)NCc2c(C)n(C)[nH]c2=O)c1C)[C@H]1CC[C@H](N(C)C(C)c2cccnc2)CC1 (stereo partly drawn) [Compound 73, 5-chloro-N-((1,5-dimethyl-3-oxo-2,3-dihydro-1H-pyrazol-4-yl)methyl)-3-(ethyl((trans)-4-(methyl(1-(pyridin-3-yl)ethyl)amino)cyclohexyl)amino)-2-methylbenzamide] | 5.89 | 6.83
CCN(c1cc(Cl)cc(C(=O)NCc2c(OC)nn(C)c2OC)c1C)[C@H]1CC[C@H](N(C)C)CC1 [Compound 95, 5-chloro-N-((3,5-dimethoxy-1-methyl-1H-pyrazol-4-yl)methyl)-3-(((trans)-4-(dimethylamino)cyclohexyl)(ethyl)amino)-2-methylbenzamide] | < 4.30 | 4.75
CCN(c1cc(Cl)cc(C(=O)NCc2c(OC)nn3cccnc23)c1C)[C@H]1CC[C@H](N(C)C)CC1 [Compound 50, 5-chloro-3-(((trans)-4(dimethylamino)cyclohexyl)(ethyl)amino)-N-((2-methoxypyrazolo[1,5-a]pyrimidin-3-yl)methyl)-2-methylbenzamide] | 4.56 | 5.57
CCN(c1cc(Cl)cc(C(=O)NCc2c(OC)nn(C)c2N2CCCCC2)c1C)[C@H]1CC[C@H](N(C)Cc2cccc(OC)c2)CC1 [Compound 83, 5-chloro-3-(ethyl((trans)-4-((3-methoxybenzyl)(methyl)amino)cyclohexyl)amino)-N-((3-methoxy-1-methyl-5-(piperidin-1-yl)-1H-pyrazol-4-yl)methyl)-2-methylbenzamide] | 4.34 | 4.74
CCn1[nH]c(=O)c(CNC(=O)c2cc(Cl)cc(N(CC)[C@H]3CC[C@H](N(C)CCOC)CC3)c2C)c1C [Compound 65, 5-chloro-3-(ethyl((trans)-4-((2-methoxyethyl)-(methyl)-amino)-cyclohexyl)-amino)-N-((1-ethyl-5-methyl-3-oxo-2,3-dihydro-1H-pyrazol-4-yl)methyl)-2-methylbenzamide] | 5.94 | 6.35
CCN(c1cc(Cl)cc(C(=O)NCc2c(C(C)C)[nH]n(C)c2=O)c1C)[C@H]1CC[C@H](N(C)C)CC1 [Compound 39, 5-chloro-3-(((trans)-4-(dimethylamino)cyclohexyl)(ethyl)amino)-N-((5-isopropyl-2-methyl-3-oxo-2,3-dihydro-1H-pyrazol-4-yl)methyl)-2-methylbenzamide] | 5.18 | 5.65
CCCCc1[nH]n(C)c(=O)c1CNC(=O)c1cc(Cl)cc(N(CC)[C@H]2CC[C@H](N(C)C)CC2)c1C [Compound 40, N-((5-butyl-2-methyl-3-oxo-2,3-dihydro-1H-pyrazol-4-yl)methyl)-5-chloro-3-(((trans)-4-(dimethylamino)cyclohexyl)(ethyl)amino)-2-methylbenzamide] | 6.16 | 6.78
CCN(c1cc(Cl)cc(C(=O)NCc2c(=O)[nH]n3c(C)cc(C)nc23)c1C)[C@H]1CC[C@H](N(C)C)CC1 [Compound 49, 5-chloro-N-((5,7-dimethyl-2-oxo-1,2-dihydropyrazolo[1,5-a]pyrimidin-3-yl)methyl)-3-(((trans)-4-(dimethylamino)cyclohexyl)(ethyl)amino)-2-methylbenzamide] | 4.98 | 5.29
CCN(c1cc(Cl)cc(C(=O)NCc2c(C(F)(F)F)n(C)n(C)c2=O)c1C)[C@H]1CC[C@H](N(C)C)CC1 [Compound 90, 5-chloro-N-((1,2-dimethyl-3-oxo-5-(trifluoromethyl)-2,3-dihydro-1H-pyrazol-4-yl)methyl)-3-(ethyl((trans)-4-(dimethylamino)cyclohexyl)amino)-2-methylbenzamide] | 5.72 | 6.30
CCn1[nH]c(=O)c(CNC(=O)c2cc(Cl)cc(N(CC)[C@H]3CC[C@H](N(C)Cc4ccc(OC)cc4)CC3)c2C)c1C [Compound 71, 5-chloro-3-(ethyl((trans)-4-((4-methoxybenzyl)-(methyl)-amino)-cyclohexyl)-amino)-N-((1-ethyl-5-methyl-3-oxo-2,3-dihydro-1H-pyrazol-4-yl)methyl)-2-methylbenzamide] | 5.72 | 6.30
CCN(c1cc(Cl)cc(C(=O)NCc2c(C)cc3nc(C)[nH]n3c2=O)c1C)[C@H]1CC[C@H](N(C)C)CC1 [Compound 9, 5-chloro-N-((2,7-dimethyl-5-oxo-3,5-dihydro-[1,2,4]triazolo[1,5-a]pyridin-6-yl)methyl)-3-(((trans)-4-(dimethylamino)cyclohexyl)(ethyl)amino)-2-methylbenzamide] | 4.46 | 4.94
CCN(c1cc(Cl)cc(C(=O)NCc2c(C)n(C)[nH]c2=O)c1C)C1CCN(CCOC)CC1 [Compound 77, 5-chloro-N-((1,5-dimethyl-3-oxo-2,3-dihydro-1H-pyrazol-4-yl)methyl)-3-(ethyl(1-(2-methoxyethyl)piperidin-4-yl)amino)-2-methylbenzamide] | 4.90 | 5.33
CCN(c1cc(Cl)cc(C(=O)NCc2cn(C)[nH]c2=O)c1C)[C@H]1CC[C@H](N(C)C)CC1 [Compound 31a, 5-chloro-3-(ethyl((trans)-4-(dimethylamino)cyclohexyl]amino)-2-methyl-N-((1-methyl-3-oxo-2,3-dihydro-1H-pyrazol-4-yl)methyl]benzamide formate] | 6.30 | 6.64
CCN(c1cc(Cl)cc(C(=O)NCc2c(SC)n(C)[nH]c2=O)c1C)[C@H]1CC[C@H](N(C)C)CC1 [Compound 31b, 5-chloro-3-{ethyl[(trans)-4-(dimethylamino)cyclohexyl]amino}-2-methyl-N-{[1-methyl-5-(methylsulfanyl)-3-oxo-2,3-dihydro-1H-pyrazol-4-yl]methyl}benzamide Formate] | 5.91 | 5.97
CCN(c1cc(-c2ccc(CN3CCOCC3)cc2)cc(C(=O)NCc2c(OC)nn(C)c2C)c1C)[C@H]1CC[C@H](N(C)C)CC1 [Compound 53, 5-(((trans)-4-(dimethylamino)cyclohexyl) (ethyl)amino)-N-((3-methoxy-1,5-dimethyl-1H-pyrazol-4-yl)methyl)-4-methyl-4′-(morpholinomethyl)-[1,1′-biphenyl]-3-carboxamide] | 5.66 | 6.20
CCN(c1cc(Cl)cc(C(=O)NCc2c(C(F)(F)F)[nH]n(C)c2=O)c1C)[C@H]1CC[C@H](N(C)C)CC1 [Compound 89, 5-chloro-3-(ethyl((trans)-4-(dimethylamino)cyclohexyl)amino)-2-methyl-N-((2-methyl-3-oxo-5-(trifluoromethyl)-2,3-dihydro-1H-pyrazol-4-yl)methyl)benzamide] | < 4.30 | < 4.30
CCN(c1cc(Cl)cc(C(=O)NCc2c(OC)nn(C)c2N2CCCCC2)c1C)[C@H]1CC[C@H](N(C)C)CC1 [Compound 92, 5-chloro-3-(ethyl[(trans)-4-(dimethylamino)cyclohexyl]amino)-N-([3-methoxy-1-methyl-5-(piperidin-1-yl)-1H-pyrazol-4-yl]methyl)-2-methylbenzamide] | < 4.30 | < 4.30
